Measured values reported in the NIST ThermoML archive (doi:10.1016/j.tca.2014.07.001).
Numbers after ± are expanded uncertainties.

Details: Liquid; for mass density: 101.33 kPa, Vibrating tube method; for vapor or sublimation pressure: Rate of evaporation

Cc1cc(OC(=O)C(C)(C)C)cc(OC(=O)C(C)(C)C)c1
Details | mass density [kg/m3] | vapor or sublimation pressure [kPa]
323.1 K | 977.806 ± 0.088 | –
333.1 K | 969.344 ± 0.091 | –
343.1 K | 960.889 ± 0.093 | –
353.1 K | 952.427 ± 0.096 | –
363.1 K | 943.951 ± 0.099 | –
456 K | – | 1.816 ± 0.43
460 K | – | 2.127 ± 0.5
464 K | – | 2.485 ± 0.54
468 K | – | 2.894 ± 0.62
472 K | – | 3.363 ± 0.72
476 K | – | 3.898 ± 0.83
480 K | – | 4.506 ± 0.95
484 K | – | 5.197 ± 1.1
488 K | – | 5.98 ± 1.2
492 K | – | 6.865 ± 1.4
496 K | – | 7.864 ± 1.6
500 K | – | 8.989 ± 1.8
504 K | – | 10.25 ± 2
508 K | – | 11.67 ± 2.2
512 K | – | 13.26 ± 2.5
516 K | – | 15.03 ± 2.8
520 K | – | 17 ± 3.2
524 K | – | 19.2 ± 3.5
528 K | – | 21.65 ± 3.9
532 K | – | 24.36 ± 4.3
536 K | – | 26.58 ± 4.4

CCCCOc1cc(C)cc(OCCCC)c1 [1,3-dibutoxy-5-methylbenzene]
Details | mass density [kg/m3] | vapor or sublimation pressure [kPa]
278.2 K | 955.338 ± 0.095 | –
298.1 K | 938.896 ± 0.1 | –
318.1 K | 922.519 ± 0.1 | –
338.1 K | 906 ± 0.11 | –
358.1 K | 889.4 ± 0.12 | –
421 K | – | 1.076 ± 0.28
425 K | – | 1.286 ± 0.33
429 K | – | 1.533 ± 0.36
433 K | – | 1.821 ± 0.42
437 K | – | 2.156 ± 0.49
441 K | – | 2.545 ± 0.57
445 K | – | 2.995 ± 0.67
449 K | – | 3.515 ± 0.78
453 K | – | 4.114 ± 0.9
457 K | – | 4.801 ± 1
461 K | – | 5.588 ± 1.2
465 K | – | 6.487 ± 1.4
469 K | – | 7.512 ± 1.6
473 K | – | 8.677 ± 1.8
477 K | – | 9.998 ± 2.1
481 K | – | 11.49 ± 2.3
485 K | – | 13.18 ± 2.6
489 K | – | 15.09 ± 2.9
493 K | – | 17.23 ± 3.3
497 K | – | 19.63 ± 3.7
501 K | – | 22.32 ± 4.2
505 K | – | 25.32 ± 4.8
509 K | – | 28.68 ± 5
513 K | – | 32.42 ± 5.7
517 K | – | 34.44 ± 5.6

Cc1cc(OCC(C)C)cc(OCC(C)C)c1 [1-methyl-3,5-bis(2-methylpropoxy)benzene]
Details | mass density [kg/m3] | vapor or sublimation pressure [kPa]
328.2 K | 908.941 ± 0.083 | –
338.2 K | 901.02 ± 0.086 | –
348.2 K | 893.071 ± 0.089 | –
358.2 K | 885.087 ± 0.092 | –
446 K | – | 2.406 ± 0.59
449 K | – | 2.737 ± 0.67
452 K | – | 3.108 ± 0.71
455 K | – | 3.524 ± 0.8
458 K | – | 3.989 ± 0.9
461 K | – | 4.508 ± 1
464 K | – | 5.086 ± 1.1
467 K | – | 5.729 ± 1.3
470 K | – | 6.445 ± 1.4
473 K | – | 7.238 ± 1.6
476 K | – | 8.118 ± 1.8
479 K | – | 9.091 ± 1.9
482 K | – | 10.17 ± 2.1
485 K | – | 11.35 ± 2.3
488 K | – | 12.66 ± 2.5
491 K | – | 14.1 ± 2.8
494 K | – | 15.69 ± 3.1
497 K | – | 17.43 ± 3.4
500 K | – | 19.33 ± 3.8
503 K | – | 21.42 ± 4.2
506 K | – | 23.71 ± 4.4
509 K | – | 26.21 ± 4.8

Cc1cc(OCCc2ccccc2)cc(OCCc2ccccc2)c1 [1-methyl-3,5-bis(2-phenylethoxy)benzene]
Details | mass density [kg/m3] | vapor or sublimation pressure [kPa]
283.2 K | 921.532 ± 0.07 | –
303.2 K | 907.265 ± 0.076 | –
323.2 K | 893.041 ± 0.081 | –
343.2 K | 878.854 ± 0.087 | –
363.2 K | 864.445 ± 0.093 | –
507 K | – | 1.602 ± 0.37
510 K | – | 1.802 ± 0.42
513 K | – | 2.024 ± 0.44
516 K | – | 2.271 ± 0.49
519 K | – | 2.543 ± 0.55
522 K | – | 2.845 ± 0.61
525 K | – | 3.179 ± 0.68
528 K | – | 3.548 ± 0.75
531 K | – | 3.954 ± 0.83
534 K | – | 4.401 ± 0.92
537 K | – | 4.893 ± 1
540 K | – | 5.434 ± 1.1
543 K | – | 6.027 ± 1.2
546 K | – | 6.678 ± 1.4
549 K | – | 7.39 ± 1.5
552 K | – | 8.17 ± 1.7
555 K | – | 9.022 ± 1.8
558 K | – | 9.952 ± 2
561 K | – | 10.97 ± 2.1
564 K | – | 12.07 ± 2.3
567 K | – | 13.28 ± 2.4
570 K | – | 14.59 ± 2.6
573 K | – | 15.52 ± 2.6

Cc1cc(OC(C)C)cc(OC(C)C)c1 [1-methyl-3,5-bis(propan-2-yloxy)benzene]
Details | mass density [kg/m3] | vapor or sublimation pressure [kPa]
283.2 K | 963.279 ± 1.8 | –
303.2 K | 945.753 ± 1.7 | –
323.2 K | 928.213 ± 1.7 | –
343.2 K | 910.635 ± 1.6 | –
363.2 K | 892.968 ± 1.6 | –
419 K | – | 2.389 ± 0.58
422 K | – | 2.713 ± 0.66
425 K | – | 3.074 ± 0.69
428 K | – | 3.478 ± 0.78
431 K | – | 3.928 ± 0.87
434 K | – | 4.428 ± 0.98
437 K | – | 4.984 ± 1.1
440 K | – | 5.601 ± 1.2
443 K | – | 6.285 ± 1.4
446 K | – | 7.041 ± 1.5
449 K | – | 7.876 ± 1.7
452 K | – | 8.796 ± 1.9
455 K | – | 9.811 ± 2.1
458 K | – | 10.93 ± 2.2
461 K | – | 12.15 ± 2.4
464 K | – | 13.49 ± 2.7
467 K | – | 14.97 ± 2.9
470 K | – | 16.58 ± 3.2
473 K | – | 18.34 ± 3.5
476 K | – | 20.26 ± 3.7
479 K | – | 22.36 ± 4.1

CCCCC(=O)Oc1cc(C)cc(OC(=O)CCCC)c1 [3-methyl-5-(pentanoyloxy)phenyl pentanoate]
Details | mass density [kg/m3] | vapor or sublimation pressure [kPa]
278.2 K | 1031.85 ± 0.3 | –
298.1 K | 1015.28 ± 0.28 | –
318.1 K | 998.841 ± 0.27 | –
338.1 K | 982.449 ± 0.27 | –
358.1 K | 966.043 ± 0.27 | –
464 K | – | 0.708 ± 0.18
468 K | – | 0.844 ± 0.22
472 K | – | 1.004 ± 0.23
476 K | – | 1.19 ± 0.27
480 K | – | 1.406 ± 0.32
484 K | – | 1.657 ± 0.37
488 K | – | 1.948 ± 0.43
492 K | – | 2.284 ± 0.5
496 K | – | 2.671 ± 0.58
500 K | – | 3.116 ± 0.68
504 K | – | 3.626 ± 0.78
508 K | – | 4.209 ± 0.9
512 K | – | 4.875 ± 1
516 K | – | 5.633 ± 1.2
520 K | – | 6.495 ± 1.4
524 K | – | 7.472 ± 1.5
528 K | – | 8.579 ± 1.8
532 K | – | 9.828 ± 2
536 K | – | 11.24 ± 2.2
540 K | – | 12.82 ± 2.5
544 K | – | 14.6 ± 2.8
548 K | – | 16.6 ± 3.1
552 K | – | 18.83 ± 3.5
556 K | – | 21.33 ± 3.8
560 K | – | 24.11 ± 4.3
